# Experimental data as given in EPA's ToxRefDB 2.
# Experiments:
# rat [1] = conditions: Sub-acute repeat dose toxicity, wistar, Oral, Gavage/Intubation, dose end: 14 day, group: systemic
# primate [2] = conditions: Sub-acute repeat dose toxicity; Oral; Gavage/Intubation; dose end: 5 day; group: systemic; systemic / clinical chemistry / [other] / [other] + systemic / clinical chemistry / plasma renin activity / plasma renin activity + systemic…
# rat [3] = conditions: Sub-acute repeat dose toxicity; wistar; Oral; Gavage/Intubation; dose end: 14 day; group: systemic; systemic / in life observation / clinical signs / abnormal feces + systemic / in life observation / clinical signs / erythema + systemic / …
# rabbit = conditions: Sub-acute repeat dose toxicity, Oral, Gavage/Intubation, dose end: 13 day
# primate [4] = conditions: Sub-acute repeat dose toxicity, Oral, Gavage/Intubation, dose end: 28 day, group: systemic
# rat [5] = conditions: Sub-acute repeat dose toxicity, wistar, Oral, Gavage/Intubation, dose end: 14 day, group: systemic; remark: listed apart in the source
# dog [6] = conditions: Sub-acute repeat dose toxicity, beagle, Oral, Gavage/Intubation, dose end: 28 day, group: systemic
# primate [7] = conditions: Sub-acute repeat dose toxicity, Oral, Gavage/Intubation, dose end: 14 day, group: systemic
# rat [8] = conditions: Sub-acute repeat dose toxicity, wistar, Oral, Gavage/Intubation, dose end: 28 day, group: systemic
# rat [9] = conditions: Subchronic oral toxicity in rodents, Sprague-Dawley, Feed, dose end: 90 day, group: systemic, systemic / in life observation / body weight / body weight gain
# dog [10] = conditions: Subchronic oral toxicity in nonrodent, beagle, Capsule, dose end: 13 week, group: systemic
# dog [11] = conditions: Subchronic oral toxicity in nonrodent, beagle, Feed, dose end: 90 day, group: systemic
# mouse = conditions: Subchronic oral toxicity in rodents, cd1, Feed, dose end: 13 week, group: systemic
# rat [12] = conditions: Subchronic oral toxicity in rodents, sprague dawley, Feed, dose end: 90 day, group: systemic
# rat [13] = conditions: Multigenerational reproductive toxicity study, sprague dawley, Oral, Feed, dose end: 2 generation
# rat [14] = conditions: Combined chronic toxicity/carcinogenicity, sprague dawley, Oral, Feed, dose end: 24 month, group: systemic
# dog [15] = conditions: Subchronic oral toxicity in nonrodent, beagle, Feed, dose end: 13 week, group: systemic
# [16] = systemic / in life observation / clinical signs / abnormal feces + systemic / in life observation / clinical signs / body cold to touch + …
# [17] = systemic / in life observation / clinical signs / body cold to touch + systemic / in life observation / clinical signs / dehydration + …
# [18] = group: maternal, reproductive / reproductive performance / aborted / aborted + reproductive / reproductive performance / resorptions / resorptions
# [19] = group: systemic, systemic / in life observation / body weight / body weight gain
# [20] = group: systemic, systemic / in life observation / body weight / body weight gain + systemic / in life observation / body weight / body weight + systemic / in…
# [21] = systemic / in life observation / clinical signs / abnormal feces + systemic / in life observation / clinical signs / dialated pupils + …
# [22] = systemic / in life observation / clinical signs / abnormal feces + systemic / in life observation / clinical signs / salivation + systemic…
# [23] = systemic / clinical chemistry / alanine aminotransferase (alt/sgpt) / alanine aminotransferase (alt/sgpt) + systemic / clinical chemistry / …
# [24] = systemic / in life observation / body weight / body weight + systemic / pathology microscopic / kidney / atrophy + systemic / pathology …
# [25] = systemic / clinical chemistry / [other] / [other] + systemic / clinical chemistry / creatinine / creatinine + systemic / in life observation…
# [26] = systemic / in life observation / body weight / body weight gain + systemic / in life observation / clinical signs / abnormal feces + …
# [27] = systemic / in life observation / clinical signs / nasal discharge + systemic / in life observation / clinical signs / urine staining - …
# [28] = systemic / clinical chemistry / gamma glutamyl transferase (ggt) / gamma glutamyl transferase (ggt) + systemic / in life observation / …
# [29] = systemic / in life observation / body weight / body weight gain + systemic / in life observation / food consumption / food efficiency
# [30] = systemic / in life observation / body weight / body weight gain + systemic / in life observation / food consumption / food efficiency + …
# [31] = systemic / in life observation / body weight / body weight gain + systemic / in life observation / body weight / body weight + systemic / in…
# [32] = systemic / in life observation / body weight / body weight + systemic / in life observation / body weight / body weight gain + systemic / in…
# [33] = systemic / organ weight / heart / relative to body weight
# [34] = group: offspring, systemic / in life observation / clinical signs / reduced body size
# [35] = group: parental, systemic / in life observation / food consumption / food consumption
# [36] = group: parental, systemic / in life observation / food consumption / food consumption + systemic / in life observation / body weight / body weight + systemic…
# [37] = group: reproductive, reproductive / offspring survival early / litter size / litter size
# [38] = systemic / in life observation / body weight / body weight + systemic / in life observation / body weight / body weight gain + systemic / …
# [39] = systemic / in life observation / body weight / body weight gain + systemic / in life observation / food consumption / food consumption + …
# [40] = systemic / in life observation / food consumption / food consumption + systemic / in life observation / body weight / body weight gain
smiles,measurement,setting,value
Cc1cc(SC2=C(O)C[C@@](CCc3ccc(N)cc3)(C(C)C)OC2=O)c(C(C)(C)C)cc1CO [CI-1029],LOAEL,rat [1]; [16],> 5000 mg/kg/day
same,NOAEL,rat [1]; [16],≥ 5000 mg/kg/day
same,LEL,rat [1]; [17],500 mg/kg/day
same,NEL,rat [1]; [17],< 500 mg/kg/day
same,LEL,primate [2],750 mg/kg/day
same,LOAEL,primate [2],> 750 mg/kg/day
same,NEL,primate [2],< 750 mg/kg/day
same,NOAEL,primate [2],≥ 750 mg/kg/day
same,LEL,rat [3],2500 mg/kg/day
same,LOAEL,rat [3],> 5000 mg/kg/day
same,NEL,rat [3],1000 mg/kg/day
same,NOAEL,rat [3],≥ 5000 mg/kg/day
same,LEL,rabbit; [18],250 mg/kg/day
same,LOAEL,rabbit; [18],> 500 mg/kg/day
same,NEL,rabbit; [18],100 mg/kg/day
same,NOAEL,rabbit; [18],≥ 500 mg/kg/day
same,LEL,rabbit; [19],50 mg/kg/day
same,NEL,rabbit; [19],< 50 mg/kg/day
same,LOAEL,rabbit; [20],> 500 mg/kg/day
same,NOAEL,rabbit; [20],≥ 500 mg/kg/day
same,LEL,primate [4]; systemic / in life observation / body weight / body weight + systemic / in life observation / clinical signs / abnormal feces + systemic / …,500 mg/kg/day
same,LOAEL,primate [4]; [21],> 750 mg/kg/day
same,NOAEL,primate [4]; [21],≥ 750 mg/kg/day
same,LOAEL,rat [5]; [22],> 1000 mg/kg/day
same,NEL,rat [5]; [22],250 mg/kg/day
same,NOAEL,rat [5]; [22],≥ 1000 mg/kg/day
same,LEL,rat [5]; systemic / in life observation / clinical signs / urine staining - perineum,500 mg/kg/day
same,LOAEL,dog [6]; [23],> 500 mg/kg/day
same,NOAEL,dog [6]; [23],≥ 500 mg/kg/day
same,LEL,dog [6]; [24],100 mg/kg/day
same,NEL,dog [6]; [24],< 100 mg/kg/day
same,LOAEL,primate [7]; [25],> 1000 mg/kg/day
same,NOAEL,primate [7]; [25],≥ 1000 mg/kg/day
same,LEL,primate [7]; [26],100 mg/kg/day
same,NEL,primate [7]; [26],< 100 mg/kg/day
same,LOAEL,rat [8]; [27],> 1000 mg/kg/day
same,NEL,rat [8]; [27],100 mg/kg/day
same,NOAEL,rat [8]; [27],≥ 1000 mg/kg/day
same,LEL,rat [8]; systemic / in life observation / clinical signs / urine staining - perineum + systemic / in life observation / body weight / body weight …,500 mg/kg/day
CCc1cccc(C)c1N(C(=O)CS(=O)(=O)O)C(C)COC (configuration not stated) [Metolachlor ESA],LEL,rat [9],1540 mg/kg/day
same,LOAEL,rat [9],> 1540 mg/kg/day
same,NEL,rat [9],427 mg/kg/day
same,NOAEL,rat [9],≥ 1540 mg/kg/day
same,LEL,dog [10]; systemic / clinical chemistry / gamma glutamyl transferase (ggt) / gamma glutamyl transferase (ggt) + systemic / clinical chemistry / …,200 mg/kg/day
same,LOAEL,dog [10]; [28],> 1000 mg/kg/day
same,NOAEL,dog [10]; [28],≥ 1000 mg/kg/day
O=C(Nc1ccccc1)Nc1ccnc(Cl)c1 [Forchlorfenuron],LOAEL,dog [11]; [29],173 mg/kg/day
same,NOAEL,dog [11]; [29],< 173 mg/kg/day
same,LEL,dog [11]; [30],173 mg/kg/day
same,NEL,dog [11]; [30],< 173 mg/kg/day
same,LOAEL,mouse; systemic / in life observation / body weight / body weight gain,1290 mg/kg/day
same,LEL,mouse; [31],1290 mg/kg/day
same,NEL,mouse; [31],609 mg/kg/day
same,NOAEL,mouse; [31],609 mg/kg/day
same,LOAEL,rat [12]; [32],428 mg/kg/day
same,NOAEL,rat [12]; [32],84 mg/kg/day
same,LEL,rat [12]; [33],16 mg/kg/day
same,NEL,rat [12]; [33],< 16 mg/kg/day
same,NOAEL,"rat [13]; group: offspring, systemic / in life observation / body weight / offspring (pup) weight + developmental / offspring survival late / lactation index / …",13 mg/kg/day
same,LOAEL,"rat [13]; group: offspring, systemic / in life observation / body weight / offspring (pup) weight + systemic / in life observation / clinical signs / reduced body size",168 mg/kg/day
same,LEL,rat [13]; [34],13 mg/kg/day
same,NEL,rat [13]; [34],< 13 mg/kg/day
same,LEL,rat [13]; [35],144 mg/kg/day
same,LOAEL,rat [13]; [35],144 mg/kg/day
same,NEL,rat [13]; [36],11 mg/kg/day
same,NOAEL,rat [13]; [36],11 mg/kg/day
same,LEL,rat [13]; [37],829 mg/kg/day
same,LOAEL,rat [13]; [37],829 mg/kg/day
same,NEL,rat [13]; [37],168 mg/kg/day
same,NOAEL,rat [13]; [37],168 mg/kg/day
same,LOAEL,rat [14]; [38],93 mg/kg/day
same,NOAEL,rat [14]; [38],7 mg/kg/day
same,NEL,rat [14]; systemic / pathology microscopic / kidney / dilatation + systemic / organ weight / adrenal gland / absolute + systemic / organ weight / …,518 mg/kg/day
same,LOAEL,dog [15]; [39],162 mg/kg/day
same,NOAEL,dog [15]; [39],16.8 mg/kg/day
same,LEL,dog [15]; [40],1.8 mg/kg/day
same,NEL,dog [15]; [40],< 1.8 mg/kg/day
